Measurements: ChEMBL document CHEMBL1152309, “Isolation of 2-pyridone alkaloids from a New Zealand marine-derived penicillium species” (J Nat Prod, 2009)
Converted amounts (≈) assume the structure as drawn.

Columns and labels:
P388 = experiment: Cytotoxicity against mouse P388 cells; format: functional, cell-based
Bacillus subtilis = experiment: Antibacterial activity against Bacillus subtilis at 30 ug/disk by disc-diffusion assay; format: functional; conditions: read-out: IZ
Candida albicans = experiment: Antifungal activity against Candida albicans at 30 ug/disk by disc-diffusion assay; format: functional; conditions: read-out: IZ

| SMILES | IC50 (P388) [mg/L] | zone of inhibition at 30 µg/disc (Bacillus subtilis) [mm] | zone of inhibition at 30 µg/disc (Candida albicans) [mm] |
| --- | --- | --- | --- |
| C[C@@H]1C[C@H](C)[C@H]2c3c(cc[nH]c3=O)O[C@H](C)[C@@]2(C)C1 | > 12.5 |  |  |
| C[C@@H]1C[C@H](C)[C@@H](c2c(O)cc[nH]c2=O)[C@H](C)[C@@](C)(O)C1 [DEOXYAKANTHOMYCIN] | > 12.5 |  |  |
| C[C@@H]1C[C@H](C)[C@H]2c3c(ccn(O)c3=O)O[C@H](C)[C@@]2(C)C1 | 1.8 (≈ 6.49 µM) | 8 | 11 |
